{"source": "paper PMC6177439", "about": "“Peptide-oligonucleotide conjugates exhibiting pyrimidine-X cleavage specificity efficiently silence miRNA target acting synergistically with RNase H” (Scientific Reports, 2018)", "key": {"[1]": {"system": "96 nts fragment of HIV-1 RNA", "parameters": "method as in PMID 15047859, PMID 16615805", "conditions": "non-complementary RNA substrates; cited from earlier work"}, "miR-17 [2]": {"system": "miR-17", "assay": "RNA cleavage assay, miR-17", "format": "biochemical", "conditions": "miR-17 1 µM, conjugate 20 µM, 37 °C, 24 h", "procedure": "(§1) The reaction mixture (5 µl) contained 10^5 cpm (Cherenkov’s counting) of [^32P]-RNA, 1 μM unlabeled RNA, and one of the conjugates at a concentration ranging from 1 to 100 μM, 50 mM Tris-HCl, pH 7.0, 0.2 M KCl, and 1 mM EDTA. […] To identify cleavage sites, imidazole and T1-ladders produced by partial RNA cleavage with 2 M imidazole buffer (pH 7.0)[41] and with RNase T1[42], respectively, were run in parallel. To obtain quantitative data, gels were dried and analyzed using Molecular Imager FX (Bio-Rad, USA). The total extent of RNA cleavage and the extent of RNA cleavage at each individual site were determined with Quantity One software."}, "miR-21 [3]": {"system": "miR-21", "assay": "RNA cleavage assay, miR-21", "format": "biochemical", "conditions": "miR-21 1 µM, conjugate 100 µM, 37 °C, 0-144 h", "procedure": "as §1"}, "miR-21 [4]": {"system": "miR-21", "assay": "Gel-retardation assay, hybridization with miR-21", "format": "binding", "conditions": "at equimolar concentration and higher; miR-21 1 µM, 0.5-10 µM oligonucleotide or conjugate, 37 °C, 1 h, 50 mM Tris-HCl pH 7.0, 0.2 M KCl, 1 mM EDTA, 15% native PAAG", "procedure": "The samples were loaded onto the running gel immediately after quenching the reaction with an interval of 1 min. […] To obtain quantitative data, gels were dried and analyzed using Molecular Imager FX (Bio-Rad, USA). The extent of binding of oligonucleotide to miR-21 was determined using Quantity One software as a ratio of radioactivity measured in the complex to the total radioactivity applied onto the gel lane."}, "miR-21^hybrid": {"system": "miR-21^hybrid", "assay": "RNA cleavage assay, miR-21^hybrid", "format": "biochemical", "conditions": "RNA 1 µM, conjugate 20 µM, 37 °C, 24 h time point", "procedure": "as §1"}, "miR-17 [5]": {"system": "miR-17", "assay": "Cleavage of duplexes miR-17/ON and miR-17/conjugate by RNase H", "format": "biochemical", "conditions": "miR-17 10 µM, conjugate 5 µM, 37 °C", "procedure": "The reaction mixture (10 µl) contained 10^5 cpm (Cherenkov’s counting) of [^32P]-miR-17, 10 µM unlabeled miR-17, oligonucleotide 4 or conjugate 4 at a concentration of 5 µM, 50 mM Tris-HCl, pH 7.0, 0.2 M KCl, and 1 mM EDTA was incubated at 37 °C for 20 min. Then, RNase H (Thermo Scientific, USA) was added to the reaction mixture to a final concentration 100 U/ml and incubated at 37 °C. At different time points, 30 min and 1, 2, 4, 8, and 24 h, an aliquot was taken and the reaction was quenched by precipitation of RNA with 2% LiClO4 in acetone. RNA cleavage products were analyzed by electrophoresis in denaturing gel as described above."}, "miR-17 [6]": {"system": "miR-17", "assay": "miR-17 level in B16 cells by stem-loop qPCR", "format": "cell-based, murine", "conditions": "for decrease in the miR-17 level: 24 h after transfection with Lipofectamine 2000, 0.5 and 1 µM, normalized to U6, mean of three independent experiments", "procedure": "Murine B16 melanoma cells (1.5–1 × 10^5 per well of 24-well plate) were pre-seeded in DMEM containing 10% FBS a day before transfection and were incubated at 37 °C in a humidified atmosphere with 5% CO2. Before the transfection, the medium was replaced by serum-free and antibiotic-free DMEM, and cells were incubated for 4 h with 0.05–1 µM of conjugate 4 precomplexed with Lipofectamine 2000 (Invitrogen, USA) in Opti-MEM medium according to manufacturer’s instructions. Then, the medium was replaced by culture medium containing 10% FBS and 1% antibiotic antimycotic solution ([…] streptomycin, 10000 IU/mL penicillin, and 25 µg/mL amphotericin), and the cells were cultivated for 24 h under the same conditions. After 24 h, total RNA was isolated from the cells using TRIzol Reagent (Invitrogen, USA) according to the manufacturer’s protocol.\nExpression of miR-17, miR-21, miR-18a and let-7g in B16 cells was analyzed using stem-loop PCR technology[43],[44]. cDNA synthesis was carried out using SuperScript III reverse transcriptase (SSIII RT, Invitrogen, USA) as previously described. The RT and PCR primers used in the study are presented in Table S1 (Supplementary information). PCR amplification was carried out in a total volume of 20 µl, using Maxima Hot Start Taq DNA polymerase (Thermo Scientific, USA), 1 × PCR Buffer, 1.5 mM MgCl2, 0.2 mM dNTPs, 1 × EvaGreen (Biotium, Hayward, USA), and […] of PCR sense and antisense primers. The reaction was performed with initial preheating at 94 °C for 4 min and 40 cycles of 94 °C for 40 s, 61 °C for 30 s, and 72 °C for 30 s, followed by melting point determination. The obtained PCR data were analyzed using standard Bio-Rad iQ5 v.2.0 software. For each sample, the threshold cycle (Ct) was determined. Quantitative assessment of the level of transcripts representation and relative miRNA expression was performed by comparing the Ct values for miR-17 and a reference U6."}, "E2F1": {"system": "E2F1", "assay": "Western blot of miR-17 protein target E2F1 in B16 cells", "format": "cell-based, murine", "conditions": "1 µM, 72 h after transfection, GAPDH internal control", "procedure": "Cell lysates were separated in 12.5% SDS-PAGE and transferred to a PVDF membrane using a semi-dry transfer. The membranes were blocked for 1 h in 3% nonfat dried milk in TBST (20 mM Tris- HCl, pH 7.6,137mMNaCl, 0.1% Tween), and incubated with primary antibodies against E2F1 (ab179445, Abcam, UK, 1:500) and reference protein GAPDH (ab9485, Abcam, UK, 1:1000) at +4 °C for night. After three washes with TBST, membranes were incubated with secondary HRP-conjugated goat anti-rabbit antibodies (ab6721, Abcam, UK) at room temperature for 1 h. After three washes with TBST luminescence detection was performed by Versadoc 4000 MP (Bio-Rad, USA) using Chemiluminescent reagent kit (Abcam, USA). Data were analyzed using GelPro 4.0 software (Media Cybernetics, USA)."}, "let 7-g": {"system": "let 7-g", "assay": "Off-target let-7g level in B16 cells by stem-loop qPCR", "format": "cell-based, murine", "conditions": "1 µM, 24 h, Lipofectamine 2000, normalized to U6"}, "melanoma B16 cells": {"system": "melanoma B16 cells", "assay": "xCELLigence real-time analysis of cell proliferation", "format": "cell-based, murine", "conditions": "1 µM with Lipofectamine 2000, 120 h; for cell index: untreated control cell index 5", "procedure": "Proliferation experiments were performed using an xCELLigence real-time cell analysis (RTCA) system (ACEABiosciences, USA) in an atmosphere of 5% CO2 at 37 °C. B16 melanoma cells were seeded at a concentration of 5 × 10^3 cells per well of 16-well E-Plates. The following day, the cells were transfected with conjugate 4, control conjugate 7 or oligonucleotide 4 at 1 µM concentration using Lipofectamine™ 2000 (Invitrogen, USA). In 4 h after transfection, the medium in the wells was replaced with DMEM medium containing 10% of FBS and 1% of antibiotics antimycotic solution. Cell proliferation experiments were run for 120 h and Cell Index was monitored every 30 min for the whole experiment duration. Four replications of each cell densities were used in the cell proliferation experiment."}, "miR-18a": {"system": "miR-18a", "assay": "Off-target miR-18a level in B16 cells by stem-loop qPCR", "format": "cell-based, murine", "conditions": "1 µM, 24 h, Lipofectamine 2000, normalized to U6"}, "miR-21 [7]": {"system": "miR-21", "assay": "Off-target miR-21 level in B16 cells by stem-loop qPCR", "format": "cell-based, murine", "conditions": "1 µM, 24 h, Lipofectamine 2000, normalized to U6"}}}
{"substance": "NH2-Gly(ArgLeu)4-TCAA [short peptide-oligonucleotide conjugate, small chemical ribonuclease used as catalytic construction]", "values": [{"measurement": "cleavage specificity", "setting": "[1]", "result": "Pyr-A cleavage specificity"}]}
{"substance": "NH2—Gly(ArgLeu)4—P— (DEG)2—CTGTAAGCACTTTGGTCAGCGAAAGCTGAC [conjugate 6]", "values": [{"measurement": "cleavage of miR-17 at a 20-fold excess of conjugate", "setting": "miR-17 [2]", "result": "complete loss of ribonuclease activity"}]}
{"substance": "NH2—Gly(ArgLeu)4—P—TCAA—(DEG)2—AGT CTG ATA AGC TA [conjugate 1, peptide-oligonucleotide conjugate (miRNase) targeted to miR-21, linear 14 nt oligonucleotide, double DEG linker]", "values": [{"measurement": "cleavage efficiency of miR-21 at a 100-fold excess of conjugate", "setting": "miR-21 [3]", "result": 50, "unit": "%"}, {"measurement": "hybridization (binding) efficiency with miR-21", "setting": "miR-21 [4]", "result": 25, "unit": "%"}, {"measurement": "total extent of miR-21^hybrid cleavage at a 20-fold excess of conjugates", "setting": "miR-21^hybrid", "result": 55, "unit": "%"}]}
{"substance": "NH2—Gly(ArgLeu)4—P—TCAA—(DEG)2—CTGTAAGCACTTTGGTCAGCGAAAGCTGAC [conjugate 4]", "values": [{"measurement": "increase of conjugate activity (miR-17 cleavage at conjugate sites) in the presence of RNase H", "setting": "miR-17 [5]; RNase H 100 U/ml", "result": 11, "unit": "fold"}, {"measurement": "miR-17 cleavage at RNase H sites during the first 2 h, with RNase H", "setting": "miR-17 [5]; RNase H 100 U/ml, 2 h", "result": 45, "unit": "%"}, {"measurement": "miR-17 cleavage at sites C17-A18 and U21-A22 after 4 h, with RNase H", "setting": "miR-17 [5]; RNase H 100 U/ml, 4 h", "result": 47, "unit": "%"}, {"measurement": "miR-17 destroyed after 8 h, with RNase H", "setting": "miR-17 [5]; RNase H 100 U/ml, 8 h", "result": 95, "unit": "%"}, {"measurement": "miR-17 cleavage by conjugate alone under two-fold excess of RNA", "setting": "miR-17 [5]; no RNase H, 24 h", "result": 9, "unit": "%"}, {"measurement": "advantage in inhibition efficiency in comparison with antisense oligonucleotide 4", "setting": "miR-17 [6]", "result": 2, "unit": "fold"}, {"measurement": "decrease in the miR-17 level", "setting": "miR-17 [6]", "result": 80, "unit": "%"}, {"measurement": "lowest concentration with statistically significant reduction of miR-17 level", "setting": "miR-17 [6]; 24 h after transfection, range 0.05-1 µM", "result": 0.1, "unit": "µM"}, {"measurement": "increase of the level of E2F1 protein as compared with control", "setting": "E2F1", "result": 2.2, "unit": "fold"}, {"measurement": "cleavage of miR-17 at a 20-fold excess of conjugate", "setting": "miR-17 [2]", "result": 9, "unit": "%"}, {"measurement": "expression level of let 7-g versus controls", "setting": "let 7-g", "result": "no statistically significant differences"}, {"measurement": "cell index", "setting": "melanoma B16 cells", "result": 1}, {"measurement": "fold decrease of growth rate / inhibition of cell proliferation", "setting": "melanoma B16 cells; versus untreated cells", "result": 5, "unit": "fold"}, {"measurement": "expression level of miR-18a versus controls", "setting": "miR-18a", "result": "no statistically significant differences"}, {"measurement": "expression level of miR-21 versus controls", "setting": "miR-21 [7]", "result": "no statistically significant differences"}]}
{"substance": "NH2—Gly(ArgLeu)4—P—TCAA—(DEG)2—TCTGATAAGCTACGTAGCGAAAGCTACG [conjugate 2]", "values": [{"measurement": "cleavage efficiency of miR-21 at a 100-fold excess of conjugate", "setting": "miR-21 [3]", "result": 50, "unit": "%"}, {"measurement": "hybridization (binding) efficiency with miR-21", "setting": "miR-21 [4]", "result": 48, "unit": "%"}, {"measurement": "total extent of miR-21^hybrid cleavage at a 20-fold excess of conjugates", "setting": "miR-21^hybrid", "result": 85, "unit": "%"}]}
{"substance": "NH2—Gly(ArgLeu)4—P—TCAA—(DEG)—CTGTAAGCACTTTGGTCAGCGAAAGCTGAC [conjugate 5, miRNase targeted to miR-17, as conjugate 4 with single DEG linker]", "values": [{"measurement": "cleavage of miR-17 at a 20-fold excess of conjugate", "setting": "miR-17 [2]", "result": 3, "unit": "%"}]}
{"substance": "NH2—Gly(ArgLeu)4—P—TCAA—(TrEG)2—CGATAAATAACGCGCAAGTCAGCGAAAGCTGACTTG [conjugate 7, control conjugate addressed to luciferase mRNA]", "values": [{"measurement": "decrease in the miR-17 level", "setting": "miR-17 [6]", "result": "does not evoke any statistically significant reduction"}, {"measurement": "increase of the level of E2F1 protein as compared with control", "setting": "E2F1", "result": "no statistically significant change"}, {"measurement": "cell index", "setting": "melanoma B16 cells", "result": 3.2}]}
